Laboratory results reported in PubChem BioAssay (NCI).
Where “and” joins values, the source holds several entries; their conditions need not be identical. Equal entries are not always repeated.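 48-hour exposure; five concentrations; linearly interpolated endpoints. GI50 is the concentration that inhibits growth by half. TGI denotes the concentration required for complete inhibition of growth.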

Key:
Assay in all cases: inhibition of tumour cell growth, NCI panel, 48 h
[1] = test system: ACHN renal
[2] = test system: HOP-62 NSCLC
[3] = test system: NCI-H522 lung
[4] = test system: OVCAR-3 ovarian
[5] = test system: OVCAR-5 ovarian
[6] = test system: PC-3 prostate
[7] = test system: SN12C renal
[8] = test system: SW-620 colon
[9] = test system: SK-OV-3 ovarian
[10] = test system: SR leukemia

Structure (SMILES) | TGI [1] | GI50 [2] | TGI [2] | TGI [3] | GI50 [4] | TGI [4] | GI50 [5] | TGI [5] | GI50 [6] | TGI [6] | GI50 [7] | TGI [7] | GI50 [8] | TGI [8] | TGI [9] | TGI [10] | GI50 [1] | GI50 [3] | GI50 [9] | GI50 [10]
CCCCCCCCCC[C@H](O)[C@H](O)CC[C@@H](O)[C@H]1CC[C@@H]([C@H]2CC[C@H](CCCCCCC[C@@H](O)CC3=C[C@H](C)OC3=O)O2)O1 | > 100 µM | 11.6 µM | 69.8 µM | 62.1 µM | 11.8 µM | 3.42 µM and 30.9 µM | 47.7 µM | > 100 µM | 11.7 µM | 40.7 µM | 25.3 µM | 74.8 µM | 47.2 µM | > 100 µM |  |  |  |  |  | 
Cc1nc2c(o1)C(=Nc1ccccc1)c1nc(C)oc1C2=Nc1ccccc1 | 33.6 µM |  | 36.3 µM | 42.7 µM |  | > 100 µM |  | 92.4 µM |  |  |  | 34.8 µM |  | > 100 µM | 40.4 µM | > 100 µM |  |  |  | 
O=C(/C=C/c1cccc([N+](=O)[O-])c1)c1ccc([N+](=O)[O-])cc1 | > 100 µM |  | > 100 µM | > 100 µM |  | > 100 µM |  | > 100 µM |  |  |  | > 100 µM |  | > 100 µM | > 100 µM | > 100 µM |  |  |  | 
CC1NC(=O)C2=C1C(=O)NC(=O)C2 (configuration not stated) | > 100 µM | > 100 µM | > 100 µM | > 100 µM | > 100 µM | > 100 µM | > 100 µM | > 100 µM | > 100 µM | > 100 µM | > 100 µM | > 100 µM | > 100 µM | > 100 µM |  |  | > 100 µM | > 100 µM |  | 
COC(=O)[C@@]12CC(C(C)C)[C@H]3CC(C(=O)C=C1OC)[C@H]32 (some centres not stated) | > 100 µM |  | > 100 µM |  |  | > 100 µM |  | > 100 µM |  |  |  | > 100 µM |  | > 100 µM | > 100 µM |  |  |  |  | 
CN1CCN(C(=O)COc2ccc(/C=C3\CC4C5CC=C6CC(Cl)CCC6(C)C5CCC4(C)C3=O)cc2)CC1 (configuration not stated) | > 100 µM | 36.4 µM | > 100 µM | > 100 µM | > 100 µM | > 100 µM | > 100 µM | > 100 µM | > 100 µM | > 100 µM | > 100 µM | > 100 µM |  |  | > 100 µM |  | > 100 µM | > 100 µM | > 100 µM | 
CN(/N=C/c1ccnc2ccccc12)c1c([N+](=O)[O-])cc([N+](=O)[O-])cc1[N+](=O)[O-] | > 100 µM |  | > 100 µM | 92.8 µM |  | > 100 µM |  | > 100 µM |  |  |  | > 100 µM |  | > 100 µM | > 100 µM |  |  |  |  | 
Clc1cccc(-c2nnc(-c3nn(-c4ccccc4)c4nc5ccccc5nc34)o2)c1 | > 100 µM |  | > 100 µM | > 100 µM |  | > 100 µM |  | > 100 µM |  |  |  | > 100 µM |  | > 100 µM | > 100 µM |  |  |  |  | 
CC(=O)[CH-]C(=O)c1ccccc1.CC(=O)[CH-]C(=O)c1ccccc1.CC(=O)[CH-]C(=O)c1ccccc1.[Nd+3].[OH3+] | > 100 µM | 31.9 µM | > 100 µM | > 100 µM | 45.7 µM | > 100 µM | 93.1 µM | > 100 µM |  |  | 42.3 µM | > 100 µM | 55.2 µM | > 100 µM | 99 µM |  | 48.6 µM | 12.1 µM | 31.7 µM | 
O=C1c2ccccc2C2CCC1c1ccccc12 (configuration not stated) | > 100 µM |  | > 100 µM | 70.6 µM |  | > 100 µM |  | > 100 µM |  |  |  | > 100 µM |  | > 100 µM | > 100 µM | 58.2 µM |  |  |  | 
O=C1C2C3CC(C4C5C=CC(C5)C34)C2C2C3CC(C12)C1C2C=CC(C2)C31 (configuration not stated) | > 100 µM |  | > 100 µM | > 100 µM |  | > 100 µM |  | > 100 µM |  |  |  | > 100 µM |  | 49.5 µM | > 100 µM | > 100 µM |  |  |  | 
N#CC(C(=O)/C(=N\NC(N)=O)C(C#N)c1ccccc1)c1ccccc1 (configuration not stated) | > 100 µM |  | > 100 µM | > 100 µM |  | > 100 µM |  | > 100 µM |  |  |  | > 100 µM |  | > 100 µM | > 100 µM | > 100 µM |  |  |  | 
COc1cc(/C=N/N=C(\N)NO)c(Cl)cc1O | > 100 µM |  |  | > 100 µM |  |  |  | > 100 µM |  |  |  | > 100 µM |  | > 100 µM | > 100 µM |  |  |  |  | 
Nc1c(Cl)ncnc1NCCCCCCCCCCCCNc1ncnc(Cl)c1N |  |  | 6.82 µM |  |  | 8.35 µM |  | > 100 µM |  |  |  | 39.6 µM |  | 54 µM | > 100 µM | 5.16 µM |  |  |  | 
Clc1cccc(C2N3CCCCC3[C@@H]3c4[nH]c5ccccc5c4CCN23)c1 (some centres not stated) | 69.4 µM |  | > 100 µM |  |  | > 100 µM |  | 55.5 µM |  |  |  | 26.5 µM |  | > 100 µM | > 100 µM |  |  |  |  | 
CCNC(=O)OCc1c(COC(=O)NCC)c(-c2ccc(Cl)c(Cl)c2)n2c1CCC2 | 37.5 µM |  | 23.8 µM | 19.8 µM |  | 45.8 µM |  | 59.1 µM |  |  |  |  |  | 68.8 µM |  | 30.1 µM |  |  |  | 
COc1ccc([C@@]23Oc4cc(OC)cc(OC)c4[C@]2(O)[C@H](O)[C@H](C(N)=O)[C@H]3c2ccccc2)cc1 | 0.0474 µM and 0.0476 µM |  | 0.216 µM and 0.0916 µM | 0.0737 µM and < 0.0104 µM | < 0.0129 µM | 0.101 µM and 0.284 µM |  | 0.074 µM and < 0.0291 µM |  |  | < 0.0113 µM | 0.0751 µM |  |  |  |  |  |  |  | 0.01 µM
CC(=O)[C@H]1CCC2[C@@H]3CC=C4C[C@@H]([O-])CC[C@]4(C)C3CC[C@@]21C.CC(=O)[C@H]1CCC2[C@@H]3CC=C4C[C@@H]([O-])CC[C@]4(C)C3CC[C@@]21C.CC(=O)[CH-]C(=O)c1ccccc1.CC(=O)[CH-]C(=O)c1ccccc1.Cl.[Ti+4] (some centres not stated) | 99.1 µM | 24.6 µM | 67.6 µM | 66.5 µM | 39.5 µM | > 100 µM | > 100 µM | > 100 µM |  |  | 34.1 µM | > 100 µM | 39 µM | > 100 µM | 77.4 µM |  | 22.8 µM | 20.3 µM | 26.6 µM | 
COc1ccc(S(=O)(=O)N(CC(=O)O)c2ccccc2)cc1 | > 100 µM |  |  | > 100 µM |  | > 100 µM |  | > 100 µM |  |  |  | > 100 µM |  | > 100 µM | > 100 µM |  |  |  |  | 
O=c1c(Cl)c(Cl)cnn1CCCl | 2.35 µM |  | 34.5 µM | 1.12 µM |  | 11.9 µM |  | 34.5 µM |  |  |  | 25.5 µM |  | 3.89 µM | 21.7 µM |  |  |  |  | 
